# Test results published in article PMC10656235, “Reversible and irreversible inhibitors of coronavirus Nsp15 endoribonuclease” (The Journal of Biological Chemistry, 2023).
# Several values for one entry are separate records, joined by “and”; a condition that tells them apart may be missing. Equal values may be shown once. Entries after “also recorded” stand apart in the source; their conditions may differ. Read-outs that look alike come from different tables or passages of the source.
# Experiments:
# SARS-CoV-2 Nsp15 [1] = molecular target: T1, SARS-CoV-2 Nsp15 (Severe acute respiratory syndrome coronavirus 2, UniProt P0DTD1)
# SARS-CoV-2 = test: microbe, parasite or virus in culture; type: cell-based; details: for Viral titers at a single subtoxic concentration: MOI = 0.1, 24 h postinfection, vs DMSO; for Selectivity index: from CC50 and cellular IC50 in Vero CCL-81 cells
# MERS Nsp15 = MERS Nsp15 (Middle East respiratory syndrome-related coronavirus, UniProt K9N7C7); type: biochemical
# Sequence of MERS Nsp15 (K9N7C7 6433-6775 limits assumed): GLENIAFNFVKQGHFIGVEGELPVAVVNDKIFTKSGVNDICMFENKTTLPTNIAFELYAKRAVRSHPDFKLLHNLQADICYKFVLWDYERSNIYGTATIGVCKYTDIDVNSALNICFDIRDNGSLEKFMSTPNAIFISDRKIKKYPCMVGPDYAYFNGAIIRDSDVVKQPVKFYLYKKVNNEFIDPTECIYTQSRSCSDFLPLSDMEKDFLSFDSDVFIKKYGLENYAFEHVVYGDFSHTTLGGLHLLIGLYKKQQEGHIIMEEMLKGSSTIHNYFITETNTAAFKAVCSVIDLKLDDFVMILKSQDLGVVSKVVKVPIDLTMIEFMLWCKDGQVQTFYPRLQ
# SARS-CoV-2 Nsp15 [2] = molecular target: T1, SARS-CoV-2 Nsp15; test: FRET assay with nonionic detergent (colloidal aggregate test); type: biochemical; details: 0.01% Triton-X or CHAPS
# SARS-CoV-2 Nsp15 [3] = molecular target: T1, SARS-CoV-2 Nsp15; test: biochemical; type: biochemical
# SARS-CoV-2 Nsp15 [4] = molecular target: T1, SARS-CoV-2 Nsp15; test: Nsp15 native RNA cleavage assay (denaturing PAGE, SYBR Gold); type: biochemical
# [5] = Cell cytotoxicity assay (CellTiter-Glo); details: African green monkey, CC50, 24 h
# SARS-CoV-2 Nsp15 [6] = molecular target: T1, SARS-CoV-2 Nsp15; test: Nsp15 FRET-based activity assay; type: biochemical; details: for Nsp15 inhibition with 5′FAM and 5′Cy5 substrates and quenching: compounds at 25 μM and 50 μM
# SARS-CoV-2 Nsp15 [7] = molecular target: T1, SARS-CoV-2 Nsp15; test: Reversibility: reaction progress after dilution of preincubated enzyme-inhibitor complex; type: biochemical; details: 60 min preincubation, 1:50 dilution
# SARS-CoV-2 Nsp15 [8] = molecular target: T1, SARS-CoV-2 Nsp15; test: Effect of DTT on compound inhibition of Nsp15; type: biochemical; details: 10 mM vs 1 mM DTT
# SARS-CoV-2 Nsp15 [9] = molecular target: T1, SARS-CoV-2 Nsp15; test: MALDI-TOF mass spectrometry of Nsp15 preincubated with compound; details: preincubation with fivefold molar excess of compound
# SARS-CoV-1 Nsp15 = SARS-CoV-1 Nsp15 (Severe acute respiratory syndrome coronavirus, UniProt P0C6X7); type: biochemical
# in vitro = details: African green monkey
# Calu-3 cells = tested on: Calu-3 cells; set-up: method as in PMID 33886614; details: cited from earlier work
# [10] = RNA substrate titration 0 to 10 µM
# [11] = extra sum-of-squares F test, highest inhibitor dose
# [12] = 31-nt single rU RNA, 1 h at 37 °C
# [13] = IC50, Nsp15 activity, FRET assay, Nsp15 1 ng/μl, ~12 min at 37 °C
# [14] = Severe acute respiratory syndrome coronavirus 2, 24 h, read-out: IC50, viral inhibition, Vero CCL-81 cells, MOI = 0.1, 24 h infection
# [15] = read-out: IC50, viral inhibition, Vero CCL-81 cells, MOI = 0.1, 24 h infection
Molecule,Viral titers at a single subtoxic concentration (SARS-CoV-2; Vero CCL-81 cells),Inhibition of MERS Nsp15 (MERS Nsp15),Change of Nsp15 activity with inhibitor when detergent is present (SARS-CoV-2 Nsp15 [2]),Ki (SARS-CoV-2 Nsp15 [3]) [µM],Kinetic mechanism / predicted type of inhibition (SARS-CoV-2 Nsp15 [3]; [10]),Km diff. vs DMSO (SARS-CoV-2 Nsp15 [3]; [11]),Vmax diff. vs DMSO (SARS-CoV-2 Nsp15 [3]; [11]),Inhibition of native RNA substrate cleavage (SARS-CoV-2 Nsp15 [4]; [12]),CC50 at 24 h ([5]; Fig. S15) [µM],IC50 (SARS-CoV-2 Nsp15 [6]; [13]),Nsp15 inhibition with 5′FAM and 5′Cy5 substrates and quenching (SARS-CoV-2 Nsp15 [6]),Reversibility of inhibition (SARS-CoV-2 Nsp15 [7]),further results
5′-FAM-CAACUAAACGAAC-BHQ1-3′ [RNA2],,,,,,,,,,,,,Vmax (SARS-CoV-2 Nsp15 [1]): ~0.3 µM/min; Km (SARS-CoV-2 Nsp15 [1]; read-out: Km of substrate): ~3 µM
CC(=O)Nc1ccc(NS(=O)(=O)c2ccc3c(c2)C(=O)c2ccccc2C3=O)cc1 [CID5220994],not statistically different from the control,only modest effects,higher increase in activity,72.9 ± 11.6,competitive with substrate,Yes,No,dose-dependent effects,15 to 42,~50 µM and 50.9 µM,"inhibited Nsp15 using either substrate, without appreciable quenching",Nsp15 activity was restored,Vmax (best-fit) (SARS-CoV-2 Nsp15 [3]; inhibitor 50µM): 0.31 µM/min; Vmax (best-fit) (SARS-CoV-2 Nsp15 [3]; inhibitor 100µM): 0.28 µM/min
O=C(N/N=C/c1ccccc1O)c1ccc(O)c(O)c1 [CID5266986],not statistically different from the control,only modest effects,increase in Nsp15 activity,64.9 ± 16.9,mixed mechanisms of inhibition,Yes,Yes,dose-dependent effects,15 to 42,~78 µM and 78 µM,"inhibited Nsp15 using either substrate, without appreciable quenching",Nsp15 activity was restored,Vmax (best-fit) (SARS-CoV-2 Nsp15 [3]; inhibitor 125µM): 0.22 µM/min; Vmax (best-fit) (SARS-CoV-2 Nsp15 [3]; inhibitor 175µM): 0.21 µM/min
O=C1/C(=C/c2cc([N+](=O)[O-])cc(Br)c2O)SC(=S)N1Cc1ccccc1 [CID5675221],significantly reduced viral titers,,increase in Nsp15 activity,6.71 ± 2.31,mixed mechanisms of inhibition,Yes,Yes,dose-dependent effects,> 240,~20 µM and 20.7 µM,"inhibited Nsp15 using either substrate, without appreciable quenching",Nsp15 activity was restored,"IC50 (SARS-CoV-2; [14]): 19 ± 3.9 µM; Selectivity index (SARS-CoV-2): ~15; IC50 (SARS-CoV-2; [15]): ~20 µM and < 20 µM; Vmax (best-fit) (SARS-CoV-2 Nsp15 [3]; inhibitor 15µM): 0.21 µM/min; Vmax (best-fit) (SARS-CoV-2 Nsp15 [3]; inhibitor 30µM): 0.17 µM/min; CC50 at 24 h ([5]; measured in parallel with viral inhibition, Fig. 6): 290 ± 28 µM"
"Oc1ccc2ccccc2c1SSc1c(O)ccc2ccccc12 [IPA-3, reference compound]",significantly reduced viral titers,only modest effects; also recorded: reduced effect,increase in Nsp15 activity,,noncompetitive,No,Yes,dose-dependent effects,,,"inhibited Nsp15 using either substrate, without appreciable quenching",irreversible,"Effect of excess DTT on inhibition (SARS-CoV-2 Nsp15 [8]): excess DTT nearly completely reversed inhibition; IC50 (SARS-CoV-2; Severe acute respiratory syndrome coronavirus 2, 24 h, Vero CCL-81 cells, MOI = 0.1, 24 h infection, read-out: IC50, viral inhibition): 8.5 ± 1.1 µM; IC50 (SARS-CoV-2; Vero CCL-81 cells, MOI = 0.1, 24 h infection, read-out: IC50, viral inhibition): 10 µM; Selectivity index (SARS-CoV-2): ~5; Ki (SARS-CoV-2 Nsp15 [3]; fit to Michaelis-Menten inhibition models, read-out: Computed Ki ± SE): 10.8 ± 0.87 µM; Vmax (best-fit) (SARS-CoV-2 Nsp15 [3]; inhibitor 5µM): 0.23 µM/min; Vmax (best-fit) (SARS-CoV-2 Nsp15 [3]; inhibitor 20µM): 0.11 µM/min; Peak shift of Nsp15 versus apoprotein (SARS-CoV-2 Nsp15 [9]): ~333 Da; Inhibition of SARS-CoV-1 Nsp15 (SARS-CoV-1 Nsp15): equal potency; IC50 (SARS-CoV-2 Nsp15 [6]; FRET assay, Nsp15 1 ng/μl, ~12 min at 37 °C, read-out: IC50, Nsp15 activity): ~7 µM and 6.8 µM; CC50 at 24 h (in vitro): 43 ± 4.8 µM"
"Nc1c(S(=O)(=O)O)cc(Nc2ccc(Nc3nc(Cl)nc(Nc4cccc(S(=O)(=O)O)c4)n3)c(S(=O)(=O)O)c2)c2c1C(=O)c1ccccc1C2=O [Reactive Blue 2, reference compound]",,,,,,,,produced a fluorescent artifact,,,"inhibited Nsp15 using either substrate, without appreciable quenching",,
"Oc1c(Cl)cc(Cl)c(Cl)c1Cc1c(O)c(Cl)cc(Cl)c1Cl [hexachlorophene, reference compound]",significantly reduced viral titers,,increase in Nsp15 activity,1.23 ± 0.3,,,Yes,,,,"inhibited Nsp15 using either substrate, without appreciable quenching",Nsp15 activity was restored,"IC50 (SARS-CoV-2; [14]): 0.91 ± 0.044 µM; IC50 (SARS-CoV-2; [15]): ~1 µM; Kinetic mechanism / predicted type of inhibition (SARS-CoV-2 Nsp15 [3]): mixed mechanisms of inhibition; Km diff. vs DMSO (SARS-CoV-2 Nsp15 [3]): Yes; Vmax (best-fit) (SARS-CoV-2 Nsp15 [3]; inhibitor 3µM): 0.24 µM/min; Vmax (best-fit) (SARS-CoV-2 Nsp15 [3]; inhibitor 6µM): 0.19 µM/min; Kinetic mechanism / predicted type of inhibition (SARS-CoV-2 Nsp15 [3]; listed as Hexachlorophene): Mixed; Inhibition of SARS-CoV-1 Nsp15 (SARS-CoV-1 Nsp15): less potent; Inhibition of native RNA substrate cleavage (SARS-CoV-2 Nsp15 [4]): dose-dependent effects; IC50 (SARS-CoV-2 Nsp15 [6]; IC50, Nsp15 activity): ~1 µM and 1.6 µM and 1 to 2 µM"
CCC(CC)COC(=O)[C@H](C)N[P@](=O)(OC[C@H]1O[C@@](C#N)(c2ccc3c(N)ncnn23)[C@H](O)[C@@H]1O)Oc1ccccc1 [remdesivir],significantly reduced viral titers,,,,,,,,,,,,
"CC1(C)CCC2=C(O1)c1ccccc1C(=O)C2=O [β-lapachone, reference compound]",,,,,,,,,,,"inhibited Nsp15 using either substrate, without appreciable quenching",,
Exebryl-1,,,,,,,,,,,,,EC50 (Calu-3 cells): ~65 µM
